# Results from PMC8398451, “Molecular Engineering of Curcumin, an Active Constituent of Curcuma longa L. (Turmeric) of the Family Zingiberaceae with Improved Antiproliferative Activity” (Plants, 2021).
# Key:
# [1] = system: OVCAR-3; assay: NCI antiproliferative SRB assay, Ovarian Cancer panel; format: cell-based, Human
# [2] = system: M14; assay: NCI antiproliferative SRB assay, Melanoma panel; format: cell-based, Human
# [3] = system: NCI-H460; assay: NCI antiproliferative SRB assay, Non-Small Cell Lung Cancer panel; format: cell-based, Human
# [4] = system: Breast Cancer cell line panel; assay: NCI antiproliferative assay, panel summary; format: cell-based, Human
# [5] = system: OVCAR-4; assay: NCI antiproliferative SRB assay, Ovarian Cancer panel; format: cell-based, Human
# [6] = system: NCI-H322M; assay: NCI antiproliferative SRB assay, Non-Small Cell Lung Cancer panel; format: cell-based, Human
# [7] = system: 786–0; assay: NCI antiproliferative SRB assay, Renal Cancer panel; format: cell-based, Human
# [8] = system: NCI-H226; assay: NCI antiproliferative SRB assay, Non-Small Cell Lung Cancer panel; format: cell-based, Human
# [9] = system: OVCAR-5; assay: NCI antiproliferative SRB assay, Ovarian Cancer panel; format: cell-based, Human
# [10] = system: OVCAR-8; assay: as above; format: cell-based, Human
# [11] = system: CAKI-1; assay: NCI antiproliferative SRB assay, Renal Cancer panel; format: cell-based, Human
# [12] = system: HCC-2998; assay: NCI antiproliferative SRB assay, Colon Cancer panel; format: cell-based, Human
# [13] = system: Ovarian Cancer cell line panel; assay: NCI antiproliferative assay, panel summary; format: cell-based, Human
# [14] = system: NCI-H23; assay: NCI antiproliferative SRB assay, Non-Small Cell Lung Cancer panel; format: cell-based, Human
# [15] = system: LOX IMVI; assay: NCI antiproliferative SRB assay, Melanoma panel; format: cell-based, Human
# [16] = system: SN 12C; assay: NCI antiproliferative SRB assay, Renal Cancer panel; format: cell-based, Human
# [17] = system: UACC-62; assay: NCI antiproliferative SRB assay, Melanoma panel; format: cell-based, Human
# [18] = system: COLO 205; assay: NCI antiproliferative SRB assay, Colon Cancer panel; format: cell-based, Human
# [19] = system: Non-Small Cell Lung Cancer cell line panel; assay: NCI antiproliferative assay, panel summary; format: cell-based, Human
# [20] = system: SK-MEL-28; assay: NCI antiproliferative SRB assay, Melanoma panel; format: cell-based, Human
# [21] = system: HCT-15; assay: NCI antiproliferative SRB assay, Colon Cancer panel; format: cell-based, Human
# [22] = system: NCI/ADR-RES; assay: NCI antiproliferative SRB assay, Ovarian Cancer panel; format: cell-based, Human
# [23] = system: UO-31; assay: NCI antiproliferative SRB assay, Renal Cancer panel; format: cell-based, Human
# [24] = system: HT29; assay: NCI antiproliferative SRB assay, Colon Cancer panel; format: cell-based, Human
# [25] = system: HL-60(TB); assay: cells; format: cell-based
# [26] = system: SF-539; assay: NCI antiproliferative SRB assay, CNS Cancer panel; format: cell-based, Human
# [27] = system: EKVX; assay: NCI antiproliferative SRB assay, Non-Small Cell Lung Cancer panel; format: cell-based, Human
# [28] = system: Renal Cancer cell line panel; assay: NCI antiproliferative assay, panel summary; format: cell-based, Human; settings: Renal Cancer panel
# [29] = system: MDA-MB-231; assay: NCI antiproliferative SRB assay, Breast Cancer panel; format: cell-based
# [30] = system: SR; assay: NCI antiproliferative SRB assay, Leukemia panel; format: cell-based, Human; settings: 5-dose 0.01-100 µM
# [31] = Homo sapiens, 5-dose 0.01-100 µM
# [32] = Homo sapiens, 5-dose 0.01-100 µM, read-out: LC50 (the source's name)
# [33] = Homo sapiens, 5-dose assay, read-out: Sub Panel MID b (mean GI50 of panel)
smiles,measurement,setting,value
COc1ccc(NC(=O)n2nc(/C=C/c3ccc(O)c(OC)c3)cc2/C=C/c2ccc(O)c(OC)c2)cc1 [3b],TGI,[1]; 5-dose 0.01-100 µM,8.40 µM
same,GI50,[1]; [31],2.98 µM
same,CC50,[1]; [32],> 100 µM
same,%GI,[1]; one dose 10 µM,86.38%
same,GP (growth percent),[1]; one dose 10 µM,13.62
same,TGI,[2]; 5-dose 0.01-100 µM,41.5 µM
same,GI50,[2]; [31],3.15 µM
same,CC50,[2]; [32],> 100 µM
same,%GI,[2]; one dose 10 µM,95.03%
same,GP (growth percent),[2]; one dose 10 µM,4.97
same,TGI,[3]; 5-dose 0.01-100 µM,31.4 µM
same,GI50,[3]; [31],4.24 µM
same,CC50,[3]; [32],> 100 µM
same,%GI,[3]; one dose 10 µM,85.78%
same,GP (growth percent),[3]; one dose 10 µM,14.22
same,Mean % GI,[4]; 10 µM,69.71%
same,Selectivity Ratio (MID a:MID b),[4]; 5-dose assay,1.19
same,GI50,[4]; [33],4.12 µM
same,TGI,[5]; 5-dose 0.01-100 µM,90.7 µM
same,GI50,[5]; [31],5.72 µM
same,CC50,[5]; [32],> 100 µM
same,%GI,[5]; one dose 10 µM,48.49%
same,GP (growth percent),[5]; one dose 10 µM,51.51
same,TGI,[6]; 5-dose 0.01-100 µM,72.5 µM
same,GI50,[6]; [31],3.87 µM
same,CC50,[6]; [32],> 100 µM
same,%GI,[6]; one dose 10 µM,41.86%
same,GP (growth percent),[6]; one dose 10 µM,58.14
same,TGI,[7]; 5-dose 0.01-100 µM,24.3 µM
same,GI50,[7]; [31],4 µM
same,CC50,[7]; [32],> 100 µM
same,%GI,[7]; one dose 10 µM,67.92%
same,GP (growth percent),[7]; one dose 10 µM,32.08
same,TGI,[8]; 5-dose 0.01-100 µM,78.6 µM
same,GI50,[8]; [31],10.7 µM
same,CC50,[8]; [32],> 100 µM
same,%GI,[8]; one dose 10 µM,12.85%
same,GP (growth percent),[8]; one dose 10 µM,87.15
same,TGI,[9]; 5-dose 0.01-100 µM,54.1 µM
same,GI50,[9]; [31],18.8 µM
same,CC50,[9]; [32],> 100 µM
same,%GI,[9]; one dose 10 µM,37.70%
same,GP (growth percent),[9]; one dose 10 µM,62.30
same,TGI,[10]; 5-dose 0.01-100 µM,59.9 µM
same,GI50,[10]; [31],5.32 µM
same,CC50,[10]; [32],> 100 µM
same,%GI,[10]; one dose 10 µM,67.21%
same,GP (growth percent),[10]; one dose 10 µM,32.79
same,TGI,[11]; 5-dose 0.01-100 µM,>100 µM
same,GI50,[11]; [31],3.6 µM
same,CC50,[11]; [32],> 100 µM
same,%GI,[11]; one dose 10 µM,61.94%
same,GP (growth percent),[11]; one dose 10 µM,38.06
same,TGI,[12]; 5-dose 0.01-100 µM,>100 µM
same,GI50,[12]; [31],5.78 µM
same,CC50,[12]; [32],> 100 µM
same,%GI,[12]; one dose 10 µM,25.09%
same,GP (growth percent),[12]; one dose 10 µM,74.91
same,Mean % GI,[13]; 10 µM,60.11%
same,Selectivity Ratio (MID a:MID b),[13]; 5-dose assay,0.76
same,GI50,[13]; [33],6.46 µM
same,TGI,[14]; 5-dose 0.01-100 µM,63.8 µM
same,GI50,[14]; [31],3.81 µM
same,CC50,[14]; [32],> 100 µM
same,%GI,[14]; one dose 10 µM,56.06%
same,GP (growth percent),[14]; one dose 10 µM,43.94
same,TGI,[15]; 5-dose 0.01-100 µM,>100 µM
same,GI50,[15]; [31],3.95 µM
same,CC50,[15]; [32],> 100 µM
same,%GI,[15]; one dose 10 µM,72.41%
same,GP (growth percent),[15]; one dose 10 µM,27.59
same,TGI,[16]; 5-dose 0.01-100 µM,33.7 µM
same,GI50,"[16]; Homo sapiens, SN12C, 5-dose 0.01-100 µM",3.05 µM
same,CC50,"[16]; Homo sapiens, SN12C, 5-dose 0.01-100 µM, read-out: LC50 (the source's name)",> 100 µM
same,%GI,[16]; one dose 10 µM,68.55%
same,GP (growth percent),[16]; one dose 10 µM,31.45
same,TGI,[17]; 5-dose 0.01-100 µM,6.91 µM
same,GI50,[17]; [31],2.14 µM
same,CC50,[17]; [32],> 100 µM
same,%GI,[17]; one dose 10 µM,74.53%
same,GP (growth percent),[17]; one dose 10 µM,25.47
same,TGI,[18]; 5-dose 0.01-100 µM,44.3 µM
same,GI50,[18]; [31],16.2 µM
same,CC50,[18]; [32],> 100 µM
same,%GI,[18]; one dose 10 µM,−6.58%
same,GP (growth percent),[18]; one dose 10 µM,106.58
same,Mean % GI,[19]; 10 µM,56.51%
same,Selectivity Ratio (MID a:MID b),[19]; 5-dose assay,0.92
same,GI50,[19]; [33],5.32 µM
same,TGI,[20]; 5-dose 0.01-100 µM,92.7 µM
same,GI50,[20]; [31],3.52 µM
same,CC50,[20]; [32],> 100 µM
same,%GI,[20]; one dose 10 µM,65.47%
same,GP (growth percent),[20]; one dose 10 µM,34.53
same,TGI,[21]; 5-dose 0.01-100 µM,>100 µM
same,GI50,[21]; [31],2.98 µM
same,CC50,[21]; [32],> 100 µM
same,GP (growth percent),[21]; one dose 10 µM,13.17
same,TGI,[22]; 5-dose 0.01-100 µM,>100 µM
same,GI50,[22]; [31],4.28 µM
same,CC50,[22]; [32],> 100 µM
same,%GI,[22]; one dose 10 µM,76.11%
same,GP (growth percent),[22]; one dose 10 µM,23.89
same,TGI,[23]; 5-dose 0.01-100 µM,36.4 µM
same,GI50,[23]; [31],1.52 µM
same,LC50 (50% lethal concentration),[23]; [31],> 100 µM
same,%GI,[23]; one dose 10 µM,77.33%
same,GP (growth percent),[23]; one dose 10 µM,22.67
same,TGI,[24]; 5-dose 0.01-100 µM,11.0 µM
same,GI50,"[24]; Homo sapiens, HT-29, 5-dose 0.01-100 µM",3.52 µM
same,CC50,"[24]; Homo sapiens, HT-29, 5-dose 0.01-100 µM, read-out: LC50 (the source's name)",> 100 µM
same,%GI,[24]; one dose 10 µM,68.74%
same,GP (growth percent),[24]; one dose 10 µM,31.26
same,TGI,[25]; 5-dose 0.01-100 µM,6.69 µM
same,GI50,[25]; [31],2.55 µM
same,CC50,[25]; [32],> 100 µM
same,%GI,[25]; one dose 10 µM,94.68%
same,GP (growth percent),[25]; one dose 10 µM,5.32
same,TGI,[26]; 5-dose 0.01-100 µM,13.6 µM
same,GI50,[26]; [31],2.35 µM
same,CC50,[26]; [32],> 100 µM
same,%GI,[26]; one dose 10 µM,93.28%
same,GP (growth percent),[26]; one dose 10 µM,6.72
same,TGI,[27]; 5-dose 0.01-100 µM,83.7 µM
same,GI50,[27]; [31],6.62 µM
same,CC50,[27]; [32],> 100 µM
same,%GI,[27]; one dose 10 µM,47.61%
same,GP (growth percent),[27]; one dose 10 µM,52.39
same,GI50,[28]; [33],5.84 µM
same,Mean % GI,[28]; 10 µM,60.54%
same,Selectivity Ratio (MID a:MID b),[28]; 5-dose assay,0.84
same,TGI,[29]; 5-dose 0.01-100 µM,83.5 µM
same,GI50,[29]; Homo sapiens,4.94 µM
same,CC50,[29]; [32],> 100 µM
same,%GI,[29]; one dose 10 µM,63.47%
same,GP (growth percent),[29]; one dose 10 µM,36.53
same,TGI,[30],12.8 µM
same,GI50,[30]; Homo sapiens,1.52 µM
same,CC50,"[30]; Homo sapiens, read-out: LC50 (the source's name)",> 100 µM
